Measured values reported in patent US10842806B2, “Methods for treating ocular inflammatory disorders” (Massachusetts Eye and Ear Infirmary, priority 2011, dated 2020).

Assays:
Assay type in all cases: in vivo, Lewis rats
[1] = system: endotoxin-induced uveitis (EIU); test: Clinical scoring of EIU by slit lamp examination; settings: for EIU clinical inflammation score: 24 h after LPS, scale 0-4, mean±SD, PBS-treated EIU 3.6±0.7; for EIU clinical score: no suppression vs controls
Excerpt: Endotoxin-induced uveitis (EIU) is a rodent model of human uveitis, induced by a single systemic injection of endotoxin or lipopolysaccharide (LPS) (Rosenbaum et al., (1980) NATURE 286:611-613). Injected animals develop acute bilateral anterior inflammation, characterized by a breakdown of the blood-ocular barrier and accumulation of inflammatory cells. EIU has been used to investigate the pathogenesis of uveitis and to evaluate the therapeutic effect of several drugs (Herbort et al. (1989) EXP. EYE RES. 48:693-705; Avunduk et al. (2004) EXP. EYE RES. 79:357-365; Chang et al. (2006) BR. J. OPHTHALMOL. 90:103-108; Wakefield et al. (2010) BR. J. OPHTHALMOL. 94:271-274). The effect of AICAR on ocular inflammation associated with uveitis was assessed using the EIU rat model. Male Lewis rats ranging from 6-8 weeks old (Charles River, Wilmington, Mass.) were used for these studies. To study the effects of AICAR pretreatment, AICAR and PBS (for placebo treatment) were delivered via intraperitoneal injection of AICAR (50 mg/kg or 100 mg/kg body weight; Sigma) diluted in 150 μl PBS or equal volume of PBS at 6 hours before and at the same time as LPS injection. Four experimental groups of rats were compared: (1) Normal: no treatment (2) AICAR: normal rats treated with AICAR 6 hours before examination; (3) LPS: EIU rats treated with PBS; (4) LPS+AICAR: EIU rats treated with AICAR. Two additional groups of rats were used to study the effects of AICAR (50 mg/kg) given either at the same time as LPS injection or at 6 hours after LPS injection. Clinical scoring of EIU was performed as previously described (Pouvreau et al. (1998) J. NEUROIMMUNOL. 86:171-181). Slit lamp examination was conducted 24 hours after LPS injection in a masked fashion. The severity of EIU was graded from 0 to 4 by a masked investigator, using the following scale: 0=no inflammatory reaction; 1=discrete inflammation of the iris and conjunctival vessels; 2=dilation of the iris and conjunctival vessels with moderate flare in the anterior chamber; 3=hyperemia in iris associated with Tyndall effect in the anterior chamber; and 4=same clinical signs as 3 plus the presence of fibrin or synechiae.

[2] = system: endotoxin-induced uveitis (EIU); test: Histopathologic evaluation of EIU eyes (iris-ciliary body); settings: AICAR 50 mg/kg pretreatment, 24 h after LPS
Method: Male Lewis rats ranging from 6-8 weeks old (Charles River, Wilmington, Mass.) were used for these studies. To study the effects of AICAR pretreatment, AICAR and PBS (for placebo treatment) were delivered via intraperitoneal injection of AICAR (50 mg/kg or 100 mg/kg body weight; Sigma) diluted in 150 μl PBS or equal volume of PBS at 6 hours before and at the same time as LPS injection. Four experimental groups of rats were compared: (1) Normal: no treatment (2) AICAR: normal rats treated with AICAR 6 hours before examination; (3) LPS: EIU rats treated with PBS; (4) LPS+AICAR: EIU rats treated with AICAR. Two additional groups of rats were used to study the effects of AICAR (50 mg/kg) given either at the same time as LPS injection or at 6 hours after LPS injection. For histopathologic evaluations, EIU rats were euthanized 24 hours after LPS injection. The eyes were enucleated immediately and stored in 10% formalin solution. The eyes were then embedded in paraffin, and 10 μm sagittal sections were cut and stained with hematoxylin and eosin. For histopathologic evaluation, the anterior chamber and posterior chamber around the iris-ciliary body complex were examined with light microscopy.

retinal vessels = test: Protein leakage from retinal vessels (biotinylated BSA assay); settings: AICAR-pretreated EIU rats, 24 h after LPS; n=8; EIU rats 30.5±21.2
Method: Male Lewis rats ranging from 6-8 weeks old (Charles River, Wilmington, Mass.) were used for these studies. To study the effects of AICAR pretreatment, AICAR and PBS (for placebo treatment) were delivered via intraperitoneal injection of AICAR (50 mg/kg or 100 mg/kg body weight; Sigma) diluted in 150 μl PBS or equal volume of PBS at 6 hours before and at the same time as LPS injection. Four experimental groups of rats were compared: (1) Normal: no treatment (2) AICAR: normal rats treated with AICAR 6 hours before examination; (3) LPS: EIU rats treated with PBS; (4) LPS+AICAR: EIU rats treated with AICAR. Two additional groups of rats were used to study the effects of AICAR (50 mg/kg) given either at the same time as LPS injection or at 6 hours after LPS injection. Protein leakage from retinal vessels was assessed with a biotinylated bovine serum albumin (bBSA) assay as previously described (Trichonas et al. (2010) INVEST. OPHTHALMOL. VIS. SCI. 51:1677-1682). At 23 hours after LPS injection, rats were anesthetized and 0.14 ml of 43.7 mg/ml bBSA (Santa-Cruz Biotechnology, Santa Cruz, Calif.) was injected through the femoral vein. After one hour, the chest cavities of rats were opened, and the rats were perfused with lactated Ringer's solution via the left ventricle for 6 minutes. […] Supernatant was collected, and bBSA concentration was measured by enzyme-linked immunosorbent assay (ELISA). […]

In the case of `NC(=O)c1ncn([C@@H]2O[C@H](CO)[C@@H](O)[C@H]2O)c1N` [AICAR, 5-aminoimidazole-4-carboxamide-1-β-d-ribofuranoside], the “EIU clinical inflammation score” value ([1]; AICAR 50 mg/kg i.p. 6 h before and at same time as LPS, n=15) is reported as 2.2±0.75, the “EIU clinical inflammation score” value ([1]; AICAR 100 mg/kg i.p. 6 h before and at same time as LPS, n=12) is reported as 2.7±1.4 and the “Fibrin formation and posterior synechiae” value ([1]; AICAR-pretreated EIU animals vs PBS-treated EIU rats) is reported as “rarely seen”. The “Inflammation in normal rats that received AICAR alone” value ([1]; age-matched normal rats, no LPS, n=6) was “No inflammation was detected”, the EIU clinical score ([1]; single dose AICAR 50 mg/kg at 6 hours after LPS injection, n=6) was 3.9±0.2 and the EIU clinical score ([1]; single dose AICAR 50 mg/kg at the time of LPS injection, n=6) was 3.7±0.5. The “Number of leukocytes infiltrated around the iris-ciliary body (histopathology)” value [2] was “suppressed” and the “Protein leakage from retinal vessels (bBSA)” value (retinal vessels) was 11.2±7.2 ng/mg total retinal protein.
